In patent publication US6111065A, “Peptide inhibitors of inflammation mediated by selectins” (Centocor, Inc., priority 1994, dated 2000):
No end group written: not given here.

Biological target: T1, GMP-140 (Homo sapiens, UniProt P16109)
T1 construct: from tissue; host or cells: human platelets (outdated platelet packs from a blood bank)
T1 sequence (P16109 42-830): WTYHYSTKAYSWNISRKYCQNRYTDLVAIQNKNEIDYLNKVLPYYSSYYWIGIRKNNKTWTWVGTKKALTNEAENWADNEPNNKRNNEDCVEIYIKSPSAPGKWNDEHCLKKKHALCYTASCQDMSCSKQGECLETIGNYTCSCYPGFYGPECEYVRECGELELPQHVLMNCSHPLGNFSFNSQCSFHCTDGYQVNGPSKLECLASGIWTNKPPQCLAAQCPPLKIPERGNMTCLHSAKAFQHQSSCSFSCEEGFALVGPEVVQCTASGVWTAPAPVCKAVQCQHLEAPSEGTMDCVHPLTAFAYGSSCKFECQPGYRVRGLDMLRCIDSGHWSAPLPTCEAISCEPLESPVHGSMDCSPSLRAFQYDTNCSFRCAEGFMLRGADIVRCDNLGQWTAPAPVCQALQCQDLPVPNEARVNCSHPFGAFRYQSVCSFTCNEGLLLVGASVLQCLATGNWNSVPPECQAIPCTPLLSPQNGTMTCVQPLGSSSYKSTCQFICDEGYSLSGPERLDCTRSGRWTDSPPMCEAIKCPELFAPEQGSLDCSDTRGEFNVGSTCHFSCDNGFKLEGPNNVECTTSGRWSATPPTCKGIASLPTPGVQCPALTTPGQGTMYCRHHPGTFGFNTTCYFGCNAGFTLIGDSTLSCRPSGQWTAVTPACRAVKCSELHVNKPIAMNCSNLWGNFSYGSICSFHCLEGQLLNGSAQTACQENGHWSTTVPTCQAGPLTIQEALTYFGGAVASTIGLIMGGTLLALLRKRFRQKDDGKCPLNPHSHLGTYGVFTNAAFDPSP
Test: Inhibition of neutrophil binding to GMP-140 coated wells
Assay type: cell-based
Settings: read-out: PERCENT INHIBITION OF NEUTROPHIL BINDING
Source text: Peptides can be screened for their ability to inhibit adhesion to cells, for example, neutrophil adhesion to purified GMP-140 immobilized on plastic wells, using the assay described by Geng, et al., Nature 343, 757-760 (1990).
Human neutrophils are isolated from heparinized whole blood by density gradient centrifugation on Mono-Poly resolving media, Flow Laboratories. Neutrophil suspensions are greater than 98% pure and greater than 95% viable by trypan blue exclusion. For adhesion assays, neutrophils are suspended at a concentration of 2×10^6 cells/ml in Hanks' balanced salt solution containing 1.26 mM Ca^2+ and 0.81 mM Mg^2+ (HBSS, Gibco) with 5 mg/ml human serum albumin (HBSS/HSA). Adhesion assays are conducted in triplicate in 96-well microtiter plates, Corning, incubated at 4° C. overnight with 50 microliters of various protein solutions.
GMP-140 is isolated from human platelet lysates by immunoaffinity chromatography on antibody S12-Sepharose™ and ion-exchange chromatography on a Mono-Q™ column (FLPC, Pharmacia Fine Chemicals), as follows.
Outdated human platelet packs (100 units) obtained from a blood bank and stored at 4° C. are pooled, adjusted to 5 mM EDTA at pH 7.5, centrifuged at 4,000 rpm for 30 min in 1 liter bottles, then washed three times with 1 liter of 0.1 M NaCl, 20 mM Tris pH 7.5 (TBS), 5 mM EDTA, 5 mM benzamidine.
The pellets are then resuspended in a minimum amount of wash buffer and made 1 mM in DIFP, then frozen in 50 ml screwtop tubes at -80° C. The frozen platelets are thawed and resuspended in 50 ml TBS, 5 mM benzamidine, 5 mM EDTA pH 7.5, 100 µM leupeptin. The suspension is frozen and thawed two times in a dry ice-acetone bath using a 600 ml lyophilizing flask, then homogenized in a glass/teflon mortar and pestle and made 1 mM in DIFP. The NaCl concentration is adjusted to 0.5 M with a stock solution of 4 M NaCl. […]
Bound GMP-140 is eluted from the S12 Affigel with 100 ml of 80% ethylene glycol, 1 mM MES pH 6.0, 0.01% Lubrol PX. Peak fractions with absorbance at 280 nm are pooled. […]

RKEAEIWTDV-NH2 [RKEAEIWTDV-NH2, Arginyl-lysyl-glutamyl-alanyl-glutamyl-isoleucyl-tryptophyl-threonyl-aspartyl-valine amide]
inhibition at 100 µM (peptide concentration 0.10 Mm): 19% | inhibition at 300 µM (peptide concentration 0.30 Mm): 63% | inhibition at 1000 µM (peptide concentration 1.0 Mm): 67%
